From patent US20230348369A1 (Cytokinetics, Inc., priority 2020, published 2023)
Where two headings read alike, the source gives them in different places.

Legend:
endogenous NAMPT = biological target: T1, endogenous NAMPT (Homo sapiens, UniProt P43490); experiment: Cellular NAD+ modulation assay in neuroblastoma SH-SY5Y cells; type: cell-based
T1 construct: stimulate the endogenous NAMPT in a native cellular environment; endogenous in cells; host or cells: SH-SY5Y neuroblastoma cells
Description: The compounds described herein were also assayed for their ability to stimulate the endogenous NAMPT in a native cellular environment in the cellular NAD+ modulation assay, which measures the ability of the compound to modulate cellular NAD levels. Increased levels of NAD are expected by compounds that permeate the cells and activate the catalytic activity of the endogenous NAMPT.
Neuroblastoma SH-SY5Y cells were grown in 1:1 mixture of Eagle's Minimum Essential Medium and F12 Medium, along with 10% fetal bovine serum, in a humidified incubator with an atmosphere of 95% air and 5% CO2 at 37° C. The assays were initiated by plating 20 μL of SH-SY5Y cells in culture medium with 0.1% fetal bovine serum, at a density of 5000 cells per well to a 384-well Corning™ BioCoat™ Poly-D-Lysine Multiwell Plates. The plates were incubated in the 37° C. incubators for a period of 5 hours. Compounds in DMSO were added to the plates in a volume of 120 nL using the Labcyte Echo Liquid Handlers. […] The plates are then incubated for 40 hours. 30 μL of a readout-solution containing 0.2 U/mL Diaphorase enzyme, 40 uM resazurin, 10 uM FMN, 0.8 U/mL Alcohol dehydrogenase, 3% ethanol, 0.4 mg/mL bovine serum albumin, 0.2% Triton X-100 in 100 mM Tris-HCl, 30 mM EDTA, pH 8.4. The plates were read for fluorescence (Excitation/Emission=540 nm/590 nm) using an EnVision plate reader after 60 mins of incubation at ambient temperature.

human NAMPT = human NAMPT (Homo sapiens, UniProt P43490); experiment: Human recombinant enzyme assay (NMN fluorescence biochemical assay, activation of NAMPT)
Chain of human NAMPT (P43490 whole entry): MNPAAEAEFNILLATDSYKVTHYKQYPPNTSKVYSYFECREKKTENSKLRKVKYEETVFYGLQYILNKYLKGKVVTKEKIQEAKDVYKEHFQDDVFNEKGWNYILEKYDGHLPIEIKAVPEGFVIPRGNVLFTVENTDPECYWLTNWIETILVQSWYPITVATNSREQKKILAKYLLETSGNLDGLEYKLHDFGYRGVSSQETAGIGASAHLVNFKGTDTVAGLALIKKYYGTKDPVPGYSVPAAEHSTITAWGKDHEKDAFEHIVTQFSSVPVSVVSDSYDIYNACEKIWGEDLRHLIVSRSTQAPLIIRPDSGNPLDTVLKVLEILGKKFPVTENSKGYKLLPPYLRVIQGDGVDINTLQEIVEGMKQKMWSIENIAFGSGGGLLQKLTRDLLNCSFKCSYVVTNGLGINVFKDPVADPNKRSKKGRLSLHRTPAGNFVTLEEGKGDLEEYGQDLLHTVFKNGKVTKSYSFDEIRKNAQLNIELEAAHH
Method in brief: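 NMN production is detected fluorometrically (Ex 355/Em 460 nm) 40 min after acetophenone, KOH and formic acid derivatization. Reactions ran 60 min at ambient temperature: 6 nM human NAMPT, nicotinamide 150 μM, PRPP 20 μM, ATP 2.5 mM, buffered at pH 7.2 with 50 mM HEPES plus DTT, CHAPS, NaCl and 100 mM MgCl2.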

[1] = Table B, SH-SY5Y cells, cellular NAD levels, doxorubicin, 40 hours
[2] = Table B, SH-SY5Y cells, cellular NAD levels, doxorubicin, 40 hours, read-out: EC50
[3] = Table A, human recombinant NAMPT, NMN formation, 60 min
[4] = Table A, human recombinant NAMPT, NMN formation, 60 min, read-out: EC50 Human

T1 sequence (P43490 whole entry): as above

| Structure (SMILES) | AC0.3 (endogenous NAMPT; [1]) [µM] | EC50 (endogenous NAMPT; [2]) [µM] | AC1.4 Human (human NAMPT; [3]) [µM] | EC50 (human NAMPT; [4]) [µM] | EC50 (endogenous NAMPT) [µM] | EC50 (human NAMPT) [µM] |
| --- | --- | --- | --- | --- | --- | --- |
| COc1ccc(CNC(=O)NC2CC3(C2)CC(C(=O)N2CCN(CC(C)(C)O)CC2)C3)cc1 (stereo not shown) [Compound 76, 1-(6-(4-(2-hydroxy-2-methylpropyl)piperazine-1-carbonyl)spiro[3.3]heptan-2-yl)-3-(4-methoxybenzyl)urea] | 5.9 | 4.7 | 0.7 | 17.8 |  |  |
| COc1ccc(CNC(=O)NC2CC3(C2)CC(C(=O)N2CCOc4ccccc42)C3)cc1 (stereo not shown) [Compound 85, 1-(6-(3,4-dihydro-2H-benzo[b][1,4]oxazine-4-carbonyl)spiro[3.3]heptan-2-yl)-3-(4-methoxybenzyl)urea] | 0.9 | 0.8 | 0.1 | 1.6 |  |  |
| COc1ccc(CNC(=O)NC2CC3(C2)CC(C(=O)N(C)c2ccccc2)C3)cc1 (stereo not shown) [Compound 87, 6-(3-(4-methoxybenzyl)ureido)-N-methyl-N-phenylspiro[3.3]heptane-2-carboxamide] | 3.4 | 2.4 | 0.6 | 27.4 |  |  |
| COc1ccc(CNC(=O)NC2CC3(C2)CC(C(=O)N2CCCc4cnccc42)C3)cc1 (stereo not shown) [Compound 90, 1-(4-methoxybenzyl)-3-(6-(1,2,3,4-tetrahydro-1,6-naphthyridine-1-carbonyl)spiro[3.3]heptan-2-yl)urea] | 0.9 | 0.8 | 0.3 | 5.1 |  |  |
| CC(C)(O)CN1CCN(C(=O)C2CC3(CC(NC(=O)NCc4ccc(Cl)cc4)C3)C2)CC1 (stereo not shown) [Compound 110] | 0.5 |  | 0.7 |  | 0.3 | 3.9 |
| O=C(NCc1ccc(Cl)cc1)NC1CC2(C1)CC(NS(=O)(=O)c1ccccc1)C2 (stereo not shown) [Compound 121] | 0.6 |  | 1.5 |  | 1.2 | 5.7 |
| COc1ccc(CNC(=O)NC2CC3(C2)CN(C(=O)c2ccc(C)nc2)C3)cc1 [Compound 138, 1-(4-methoxybenzyl)-3-(2-(6-methylnicotinoyl)-2-azaspiro[3.3]heptan-6-yl)urea] | 9.1 | 10.1 | 5.7 | 43.2 |  |  |
| COc1ccc(CNC(=O)NC2CC3(C2)CN(C(=O)c2ccc(C)cc2)C3)cc1 [Compound 145, 1-(4-methoxybenzyl)-3-(2-(4-methylbenzoyl)-2-azaspiro[3.3]heptan-6-yl)urea] | 1.1 | 3.1 | 1.4 | 45.3 |  |  |
| COc1ccc(CNC(=O)NCCCCCOc2ccccc2)cc1 [Compound 149, 1-(4-methoxybenzyl)-3-(5-phenoxypentyl)urea] | 0.6 | 1.1 | 0.3 | 4.9 |  |  |

Further lines, with some results ahead:

| AC0.3 (endogenous NAMPT; [1]) [µM] | EC50 (endogenous NAMPT; [2]) [µM] | AC1.4 Human (human NAMPT; [3]) [µM] | EC50 (human NAMPT; [4]) [µM] | Structure (SMILES) | EC50 (endogenous NAMPT) [µM] | EC50 (human NAMPT) [µM] |
| --- | --- | --- | --- | --- | --- | --- |
| 5.3 | 12.7 | 0.1 | 2.8 | COc1ccc(CNC(=O)NC2CC3(C2)CC(C(=O)N2CCCc4cc(C)ccc42)C3)cc1 (stereo not shown) [Compound 84, 1-(4-methoxybenzyl)-3-(6-(6-methyl-1,2,3,4-tetrahydroquinoline-1-carbonyl)spiro[3.3]heptan-2-yl)urea] |  |  |
| 0.2 | 0.3 | 0.5 | 2.6 | O=C(NCc1ccc(Cl)cc1)NC1CC2(C1)CC(NS(=O)(=O)Cc1ccccc1Cl)C2 (stereo not shown) [Compound 120, N-(6-(3-(4-chlorobenzyl)ureido)spiro[3.3]heptan-2-yl)-1-(2-chlorophenyl)methanesulfonamide] |  |  |
| 8.0 | 12.7 | 0.6 | 7.2 | COc1ccc(CNC(=O)NC2CC3(CC(Cn4ncc5ccccc54)C3)C2)cc1 (stereo not shown) [Compound 134] |  |  |
| 8.2 | 6.3 | 7.5 | 52.5 | COc1ccc(CNC(=O)NC2CC3(C2)CN(C(=O)c2ccnc(C)c2)C3)cc1 [Compound 140, 1-(4-methoxybenzyl)-3-(2-(2-methylisonicotinoyl)-2-azaspiro[3.3]heptan-6-yl)urea] |  |  |
